Patent US11448654B2, “Protein-protein interaction assessed by detecting localized coiled coil subunits” (The Regents of the University of California, priority 2017, dated 2022)

How the values were obtained:
[1] = target: T1, interaction between CRBN and GSPT1 (Homo sapiens, UniProt P15170+Q96SW2); assay: SPARK reporter CRBN-EGFP-HOTag3 / GSPT1-HOTag6 in HEK293 cells; assay type: cell-based; conditions: time-lapse imaging
T1 construct: expressed in transfected cells; host or cells: HEK293
Source text: Many analogs and derivatives of IMiDs have recently been designed and explored as drug leads. […] To examine whether SPARK can detect CC-885 induced protein-protein interactions, HOTag6 was genetically fused to GSPT1 and co-expressed with CRBN-EGFP-HOTag3 in HEK293 cells. […] Thus, SPARK also detects CC-885 induced protein-protein interactions.

[2] = tested on: protein kinase A (PKA) activity; assay: PKA-SPARK phase separation kinase reporter in HEK293 cells; assay type: cell-based, human; conditions: for effect of pre-incubation on isoprenaline-induced droplet formation / PKA-SPARK signal: HEK293 cells, pre-incubation before isoprenaline
Source text: To design a SPARK-based PKA, reporter (named PKA-SPARK), a consensus peptide sequence was utilized that is specifically phosphorylated by PKA, as described in Durocher et al., (2000). The molecular basis of FHA domain: phosphopeptide binding specificity and implications for phospho-dependent signaling mechanisms. Mol Cell 6, 1169-1182. To introduce PKA activity-dependent PPI, forkhead-associated domain 1 (FHA1) was sued, which is a phosphothreonine binding domain. […] These two fusion sequences were connected by a “self-cleaving” 2A sequence. The rationale was that substrate and the FHA1 would induce PKA activity-dependent protein-protein interaction, the two HOTags introduce multivalency; and upon PKA activation, multivalent protein-protein interactions would be induced, leading to phase separation and formation of EGFP droplets.
To test the construct, the β-adrenergic agonist isoprenaline was added to HEK293 cells that endogenously express β-adrenergic receptors (βAR). βAR activation induces GDP for GTP exchange in the heteratrimeric G protein Gs, and GTP-bound Gαs activates adenylyl cyclase (AC), which converts ATP into cAMP that activates PKA. […] In order to confirm that the phase separation results from phosphorylation of PKA-SPARK at the expected threonine residue, we changed the threonine to alanine in the PKA substrate sequence.
Next it was tested whether phase separation of the reporter is reversible, i.e. whether the EGFP droplets would disassemble or dissolve when PKA is inactivated. Cells were pre-incubated with isoprenaline to induce phase separation, then isoprenaline was removed and H89 added to inactivate PKA. […] As a control, the EGFP droplets were stable over time in the cells with removal of isoprenaline but addition of medium without H89. […] To examine whether PKA-SPARK could quantitatively measure the droplets' disassembly over time after PKA inhibition, we defined “SPARK signal” as the sum of fluorescent droplets' pixel intensity divided by sum of cells' pixel intensity. Upon addition of H89, the SPARK signal decreased over time. In contrast, for the control the SPARK signal remained constant over time.
Time-lapse fluorescence imaging of PKA-SPARK was performed at 10 seconds per frame. […] PKA activation upon addition of isoprenaline was confirmed by AKAR2 reporter. Small droplets of PKA-SPARK were detected as early as at 20 seconds upon addition of isoprenaline. The quick activation of PKA is consistent with rapid activation of the βAR-cAMP-PKA pathway. The small droplets grew quickly and coalesced into large and intensively fluorescent droplets, which were up to 10-fold brighter than the cellular fluorescence before PKA activation. […] Therefore, PKA-SPARK achieves up to 10-fold fluorescence increase, compared to prior art AKAR2 and PKA-KTR reporters, which have ˜10% and ˜30% fluorescence ratio change, respectively. […] The results also verified that PKA-SPARK could detect PKA activity over a wide range of reporter expression. Lastly the concentration of PKA-SPARK (2-10 μM) appeared to have no effect on kinetics of droplet assembly and disassembly.
In additional experiments, PKA was activated via the G-coupled GPCR βAR. Isoprenaline was added to activate endogenous βARs in HEK293 cells.

[3] = tested on: ERK activity; assay: ERK-SPARK phase separation kinase reporter in HEK293 cells; conditions: for effect of pre-incubation on phase separation of ERK-SPARK upon addition of EGF: HEK293 cells, pre-incubation before EGF
Source text: To determine whether the SPARK design generalizes, the highly conserved kinase ERK was utilized in a second pair of reporter fusion proteins. To design a SPARK-based ERK reporter (ERK-SPARK), the ERK activity-sensing motifs that were used for previous FRET-based ERK reporters were employed. One of the ERK activity-sensing motifs is a phosphopeptide sequence from Cdc25C, followed by an ERK-specific docking site that determines substrate specificity. The companion fragment is a WW domain that binds the phosphorylated substrate. The ERK substrate sequence was fused to EGFP followed by HOTag3, and the WW domain was fused to EGFP followed by HOTag6. The two fusions were connected by a “self-cleaving” 2A sequence. The pair of reporter fusion proteins was expressed in HEK293 cells exposed to epidermal growth factor (EGF). EGF binds the EGF receptor, resulting in ERK activation. […] Because the ERK docking site was previously shown to be critical for ERK recognition and binding to substrate, a reporter lacking the 4-amino-acid docking site was generated.
To investigate whether ERK-SPARK could detect GPCR-induced ERK activity, a hexapeptide full agonist for protease-activated receptor-1 was added to HEK293 cells.

[4] = tested on: PKA activity; assay: PKA-SPARK in zebrafish embryo muscle cells; assay type: in vivo; conditions: 24 hrs APF, upon addition of isoprenaline

T1 sequence (Q96SW2 whole entry): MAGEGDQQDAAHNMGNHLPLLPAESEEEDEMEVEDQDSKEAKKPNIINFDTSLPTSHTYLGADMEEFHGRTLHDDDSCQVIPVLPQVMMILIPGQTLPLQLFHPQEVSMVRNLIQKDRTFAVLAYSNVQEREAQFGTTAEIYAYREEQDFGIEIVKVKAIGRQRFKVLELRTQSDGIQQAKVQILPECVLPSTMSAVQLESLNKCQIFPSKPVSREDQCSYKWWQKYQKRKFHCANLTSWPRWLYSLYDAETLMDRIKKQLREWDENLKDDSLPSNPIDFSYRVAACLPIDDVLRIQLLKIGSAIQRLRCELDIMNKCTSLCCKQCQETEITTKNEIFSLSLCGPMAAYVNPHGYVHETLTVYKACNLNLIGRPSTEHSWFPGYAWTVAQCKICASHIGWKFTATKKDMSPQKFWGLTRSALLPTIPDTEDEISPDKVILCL
T1 sequence (P15170 whole entry): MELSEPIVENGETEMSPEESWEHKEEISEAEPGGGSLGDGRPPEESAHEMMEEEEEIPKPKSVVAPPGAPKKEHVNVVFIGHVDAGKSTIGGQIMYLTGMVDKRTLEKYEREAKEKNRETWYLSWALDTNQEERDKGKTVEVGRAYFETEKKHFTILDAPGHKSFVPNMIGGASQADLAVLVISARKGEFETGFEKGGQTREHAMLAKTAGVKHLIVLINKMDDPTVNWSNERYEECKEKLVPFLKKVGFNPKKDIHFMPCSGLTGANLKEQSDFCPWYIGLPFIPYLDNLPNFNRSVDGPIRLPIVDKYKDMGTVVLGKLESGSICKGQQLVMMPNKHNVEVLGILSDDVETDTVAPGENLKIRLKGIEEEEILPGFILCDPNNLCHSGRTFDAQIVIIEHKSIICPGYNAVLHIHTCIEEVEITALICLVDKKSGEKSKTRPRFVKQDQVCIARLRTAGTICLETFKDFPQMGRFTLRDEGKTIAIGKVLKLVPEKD

Cc1ccc(NC(=O)NCc2ccc3c(c2)CN(C2CCC(=O)NC2=O)C3=O)cc1Cl (centres unmarked) [CC-885]
droplet formation (punctal green fluorescence) upon addition [1]: intensely bright and punctal green fluorescence

O=S(=O)(NCCNC/C=C/c1ccc(Br)cc1)c1cccc2cnccc12 [H89]
effect of pre-incubation on isoprenaline-induced droplet formation / PKA-SPARK signal [2]: abolished isoprenaline-induced droplet formation
EGFP droplet disassembly when PKA is inactivated ([2]; cells pre-incubated with isoprenaline, isoprenaline removed, H89 added): EGFP droplets disassembled rapidly

O=C(NOC[C@H](O)CO)c1ccc(F)c(F)c1Nc1ccc(I)cc1F [PD 0325901]
effect of pre-incubation on phase separation of ERK-SPARK upon addition of EGF [3]: abolished phase separation

C[S+]([O-])c1ccc(-c2nc(-c3ccncc3)c(-c3ccc(F)cc3)[nH]2)cc1 (centres unmarked) [SB 203580]
effect of pre-incubation on phase separation of ERK-SPARK upon addition of EGF [3]: did not abolish formation of EGFP droplets

COc1ccccc1OCCNCC(O)COc1cccc2[nH]c3ccccc3c12 (centres unmarked) [carvedilol]
effect of pre-incubation on isoprenaline-induced droplet formation / PKA-SPARK signal [2]: abolished the sustained PKA-SPARK signals

CC(C)NCC(O)c1ccc(O)c(O)c1 (centres unmarked) [isoprenaline]
EGFP droplet formation in muscle cells [4]: EGFP droplet formation
persistence of EGFP droplets (sustained PKA activity) ([2]; endogenous βARs in HEK293 cells): at least 3 hrs
fluorescent droplet formation upon addition of βAR agonist ([2]; reporter-expressing HEK293 cells): fluorescent droplets formed
earliest detection of small PKA-SPARK droplets after addition ([2]; time-lapse imaging at 10 seconds per frame): 20 s

EGF: epidermal growth factor; binds the EGF receptor, resulting in ERK activation (NSDSECPLSHDGYCLHDGVCMYIEALDKYACNCVVGYIGERCQYRDLKWWELR; UniProt P01133 971-1023, looked up)
EGFP droplet formation upon addition of stimulus ([3]; ERK-SPARK expressing HEK293 cells): EGFP droplets formed
